Experiments:
Test in all cases: Kinase selectivity, scanMAX Kinase assay panel (DiscoverX), % control at 1 uM
Assay type in all cases: binding
[1] = molecular target: T1, scanMAX Kinase assay panel (Homo sapiens, UniProt O00506); settings: YSK1; 1 uM; read-out: Percent Control (%)
T1 construct: purchased DiscoverX
Summary of the method: (§1)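 Single-point screen at 1 uM compound in DMSO. Lower % control means stronger inhibition, with the cutoff for activity set at <35%.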

[2] = molecular target: T2, scanMAX Kinase assay panel (Homo sapiens, UniProt P16234); settings: PDGFRA; 1 uM; read-out: Percent Control (%)
T2 construct: purchased DiscoverX
Summary of the method: as §1

[3] = molecular target: T3, scanMAX Kinase assay panel (Homo sapiens, UniProt P36888, D835H); settings: FLT3 (D835H); 1 uM; read-out: Percent Control (%)
T3 construct: purchased DiscoverX
T3 sequence (P36888 27-993 D835H): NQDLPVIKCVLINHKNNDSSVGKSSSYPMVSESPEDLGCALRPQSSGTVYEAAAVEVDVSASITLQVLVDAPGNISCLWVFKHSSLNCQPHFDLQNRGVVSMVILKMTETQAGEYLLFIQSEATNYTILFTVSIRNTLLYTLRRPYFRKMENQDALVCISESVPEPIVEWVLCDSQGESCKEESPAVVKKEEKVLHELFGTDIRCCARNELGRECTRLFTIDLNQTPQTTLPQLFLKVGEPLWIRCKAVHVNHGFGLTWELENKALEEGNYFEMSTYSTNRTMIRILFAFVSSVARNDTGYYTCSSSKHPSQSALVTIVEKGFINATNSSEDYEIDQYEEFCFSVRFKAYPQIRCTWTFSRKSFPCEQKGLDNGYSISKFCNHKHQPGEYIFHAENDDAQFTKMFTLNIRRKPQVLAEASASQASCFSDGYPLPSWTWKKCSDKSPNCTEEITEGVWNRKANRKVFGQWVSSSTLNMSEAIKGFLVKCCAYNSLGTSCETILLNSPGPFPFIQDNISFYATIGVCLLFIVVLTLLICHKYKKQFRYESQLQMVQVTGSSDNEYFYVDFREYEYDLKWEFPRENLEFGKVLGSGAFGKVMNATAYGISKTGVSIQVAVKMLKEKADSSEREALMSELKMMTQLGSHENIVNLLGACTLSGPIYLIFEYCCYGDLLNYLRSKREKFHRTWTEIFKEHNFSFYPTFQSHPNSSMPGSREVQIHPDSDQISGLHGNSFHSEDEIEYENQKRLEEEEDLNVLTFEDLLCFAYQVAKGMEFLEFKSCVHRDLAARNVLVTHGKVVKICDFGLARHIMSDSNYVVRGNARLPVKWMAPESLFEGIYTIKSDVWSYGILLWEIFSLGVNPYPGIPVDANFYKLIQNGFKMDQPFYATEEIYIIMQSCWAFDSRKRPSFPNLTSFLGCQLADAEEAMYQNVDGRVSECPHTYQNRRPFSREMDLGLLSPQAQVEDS
Summary of the method: as §1

[4] = molecular target: T4, scanMAX Kinase assay panel (Homo sapiens, UniProt P49674); settings: CSNK1E; 1 uM; read-out: Percent Control (%)
T4 construct: purchased DiscoverX
T4 sequence (P49674 whole entry): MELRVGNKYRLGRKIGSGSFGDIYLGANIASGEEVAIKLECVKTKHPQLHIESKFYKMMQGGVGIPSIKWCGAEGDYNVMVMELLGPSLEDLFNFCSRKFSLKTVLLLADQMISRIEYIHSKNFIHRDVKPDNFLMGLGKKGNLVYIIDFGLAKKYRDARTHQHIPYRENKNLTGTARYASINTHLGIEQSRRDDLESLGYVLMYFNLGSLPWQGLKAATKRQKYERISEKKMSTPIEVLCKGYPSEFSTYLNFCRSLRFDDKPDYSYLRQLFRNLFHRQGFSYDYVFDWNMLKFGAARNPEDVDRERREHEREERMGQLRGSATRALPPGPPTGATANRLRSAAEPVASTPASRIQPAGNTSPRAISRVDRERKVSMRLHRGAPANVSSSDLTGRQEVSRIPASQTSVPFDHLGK
Summary of the method: as §1

[5] = molecular target: T5, scanMAX Kinase assay panel (Homo sapiens, UniProt P49840); settings: GSK3A; 1 uM; read-out: Percent Control (%)
T5 construct: purchased DiscoverX
T5 sequence (P49840 whole entry): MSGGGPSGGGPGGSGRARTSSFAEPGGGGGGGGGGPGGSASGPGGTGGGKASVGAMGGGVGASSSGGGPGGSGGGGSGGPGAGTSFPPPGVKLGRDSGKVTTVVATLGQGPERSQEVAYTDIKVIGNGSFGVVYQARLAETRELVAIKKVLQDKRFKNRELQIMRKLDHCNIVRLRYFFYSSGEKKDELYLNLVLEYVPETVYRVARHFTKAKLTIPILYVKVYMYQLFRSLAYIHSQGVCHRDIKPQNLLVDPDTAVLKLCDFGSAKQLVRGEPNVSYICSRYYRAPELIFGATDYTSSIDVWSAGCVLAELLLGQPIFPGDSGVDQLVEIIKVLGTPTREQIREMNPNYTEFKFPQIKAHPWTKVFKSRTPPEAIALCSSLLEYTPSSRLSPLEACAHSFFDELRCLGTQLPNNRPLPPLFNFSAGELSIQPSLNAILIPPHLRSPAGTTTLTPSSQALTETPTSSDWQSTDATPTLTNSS
Summary of the method: as §1

[6] = molecular target: T6, scanMAX Kinase assay panel (Homo sapiens, UniProt Q00526); settings: CDK3; 1 uM; read-out: Percent Control (%)
T6 construct: purchased DiscoverX
T6 sequence (Q00526 whole entry): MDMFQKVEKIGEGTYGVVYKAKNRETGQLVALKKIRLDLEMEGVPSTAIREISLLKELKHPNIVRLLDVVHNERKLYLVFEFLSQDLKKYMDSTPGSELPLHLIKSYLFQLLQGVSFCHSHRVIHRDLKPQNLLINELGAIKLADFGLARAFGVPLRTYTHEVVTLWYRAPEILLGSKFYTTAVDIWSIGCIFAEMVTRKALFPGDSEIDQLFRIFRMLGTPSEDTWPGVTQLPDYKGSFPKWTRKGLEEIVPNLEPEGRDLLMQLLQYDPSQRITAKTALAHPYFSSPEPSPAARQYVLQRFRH
Summary of the method: as §1

[7] = molecular target: T7, scanMAX Kinase assay panel (Homo sapiens, UniProt Q05397); settings: FAK; 1 uM; read-out: Percent Control (%)
T7 construct: purchased DiscoverX
T7 sequence (Q05397 whole entry): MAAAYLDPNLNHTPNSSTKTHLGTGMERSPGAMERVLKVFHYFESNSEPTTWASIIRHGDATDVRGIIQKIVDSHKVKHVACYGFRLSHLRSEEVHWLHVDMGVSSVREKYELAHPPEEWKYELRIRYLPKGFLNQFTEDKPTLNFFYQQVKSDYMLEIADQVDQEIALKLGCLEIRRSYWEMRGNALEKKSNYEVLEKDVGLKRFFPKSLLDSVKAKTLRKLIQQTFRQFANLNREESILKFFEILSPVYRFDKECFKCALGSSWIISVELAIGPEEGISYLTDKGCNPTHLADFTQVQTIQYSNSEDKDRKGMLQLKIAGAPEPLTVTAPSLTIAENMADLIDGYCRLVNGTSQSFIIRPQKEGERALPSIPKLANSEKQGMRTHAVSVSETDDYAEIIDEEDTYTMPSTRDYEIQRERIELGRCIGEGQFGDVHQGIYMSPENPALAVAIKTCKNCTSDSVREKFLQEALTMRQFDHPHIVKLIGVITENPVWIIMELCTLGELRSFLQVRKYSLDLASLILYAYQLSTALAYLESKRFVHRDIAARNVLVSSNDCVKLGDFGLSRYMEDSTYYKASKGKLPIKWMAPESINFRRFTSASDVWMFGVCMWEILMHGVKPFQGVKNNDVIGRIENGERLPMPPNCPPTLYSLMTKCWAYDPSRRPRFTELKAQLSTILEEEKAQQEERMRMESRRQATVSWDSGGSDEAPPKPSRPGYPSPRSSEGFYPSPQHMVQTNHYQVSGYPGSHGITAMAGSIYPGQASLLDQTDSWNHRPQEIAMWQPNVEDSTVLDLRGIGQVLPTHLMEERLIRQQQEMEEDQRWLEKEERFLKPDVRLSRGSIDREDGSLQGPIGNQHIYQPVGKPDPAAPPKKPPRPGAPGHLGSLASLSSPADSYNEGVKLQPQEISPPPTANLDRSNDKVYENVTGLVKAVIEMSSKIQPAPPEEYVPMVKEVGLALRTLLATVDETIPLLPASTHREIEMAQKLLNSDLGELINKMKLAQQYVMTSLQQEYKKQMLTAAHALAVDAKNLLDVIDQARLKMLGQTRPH
Summary of the method: as §1

[8] = molecular target: T8, scanMAX Kinase assay panel (Homo sapiens, UniProt Q14004); settings: CDC2L5; 1 uM; read-out: Percent Control (%)
T8 construct: purchased DiscoverX
T8 sequence (Q14004 whole entry): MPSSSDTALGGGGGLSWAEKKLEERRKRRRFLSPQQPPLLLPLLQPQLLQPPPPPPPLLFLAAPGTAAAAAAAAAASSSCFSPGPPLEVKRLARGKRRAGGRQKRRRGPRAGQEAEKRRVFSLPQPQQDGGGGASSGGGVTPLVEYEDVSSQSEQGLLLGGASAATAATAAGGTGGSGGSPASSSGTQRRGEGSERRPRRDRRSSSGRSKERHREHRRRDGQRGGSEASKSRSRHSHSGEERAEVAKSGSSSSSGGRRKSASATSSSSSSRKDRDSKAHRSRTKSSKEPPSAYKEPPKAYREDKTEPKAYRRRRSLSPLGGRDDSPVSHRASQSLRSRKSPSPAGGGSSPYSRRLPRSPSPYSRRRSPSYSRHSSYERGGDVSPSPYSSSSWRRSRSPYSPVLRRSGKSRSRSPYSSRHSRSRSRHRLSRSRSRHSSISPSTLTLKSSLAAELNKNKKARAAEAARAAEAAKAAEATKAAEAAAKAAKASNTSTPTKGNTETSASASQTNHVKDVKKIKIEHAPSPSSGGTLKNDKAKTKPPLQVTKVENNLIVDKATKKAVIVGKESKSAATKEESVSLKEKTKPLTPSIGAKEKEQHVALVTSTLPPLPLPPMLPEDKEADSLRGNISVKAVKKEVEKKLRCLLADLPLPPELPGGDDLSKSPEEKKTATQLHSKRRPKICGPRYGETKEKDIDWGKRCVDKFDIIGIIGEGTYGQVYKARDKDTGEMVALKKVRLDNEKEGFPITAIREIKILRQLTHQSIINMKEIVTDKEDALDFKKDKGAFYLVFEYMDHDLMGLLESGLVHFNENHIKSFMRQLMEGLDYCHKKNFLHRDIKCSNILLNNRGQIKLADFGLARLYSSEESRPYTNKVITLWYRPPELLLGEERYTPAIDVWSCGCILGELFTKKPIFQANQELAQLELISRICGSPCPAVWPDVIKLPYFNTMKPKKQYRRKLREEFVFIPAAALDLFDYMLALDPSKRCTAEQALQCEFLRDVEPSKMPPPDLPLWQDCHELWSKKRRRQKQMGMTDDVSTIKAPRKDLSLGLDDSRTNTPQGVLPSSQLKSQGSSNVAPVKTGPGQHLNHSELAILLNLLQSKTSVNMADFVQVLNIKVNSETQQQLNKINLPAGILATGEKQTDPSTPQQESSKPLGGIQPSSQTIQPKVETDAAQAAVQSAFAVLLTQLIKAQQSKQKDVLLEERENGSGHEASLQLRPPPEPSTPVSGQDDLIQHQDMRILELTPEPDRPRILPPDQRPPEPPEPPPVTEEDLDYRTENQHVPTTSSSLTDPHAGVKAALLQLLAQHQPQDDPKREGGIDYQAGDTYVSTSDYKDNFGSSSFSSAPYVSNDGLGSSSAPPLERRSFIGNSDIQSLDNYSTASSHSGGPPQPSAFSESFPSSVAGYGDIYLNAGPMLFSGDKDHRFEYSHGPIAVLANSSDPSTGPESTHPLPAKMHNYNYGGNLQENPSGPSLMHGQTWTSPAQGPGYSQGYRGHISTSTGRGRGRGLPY
Summary of the method: as §1

[9] = molecular target: T9, scanMAX Kinase assay panel (Homo sapiens, UniProt Q9BYT3); settings: STK33; 1 uM; read-out: Percent Control (%)
T9 construct: purchased DiscoverX
T9 sequence (Q9BYT3 whole entry): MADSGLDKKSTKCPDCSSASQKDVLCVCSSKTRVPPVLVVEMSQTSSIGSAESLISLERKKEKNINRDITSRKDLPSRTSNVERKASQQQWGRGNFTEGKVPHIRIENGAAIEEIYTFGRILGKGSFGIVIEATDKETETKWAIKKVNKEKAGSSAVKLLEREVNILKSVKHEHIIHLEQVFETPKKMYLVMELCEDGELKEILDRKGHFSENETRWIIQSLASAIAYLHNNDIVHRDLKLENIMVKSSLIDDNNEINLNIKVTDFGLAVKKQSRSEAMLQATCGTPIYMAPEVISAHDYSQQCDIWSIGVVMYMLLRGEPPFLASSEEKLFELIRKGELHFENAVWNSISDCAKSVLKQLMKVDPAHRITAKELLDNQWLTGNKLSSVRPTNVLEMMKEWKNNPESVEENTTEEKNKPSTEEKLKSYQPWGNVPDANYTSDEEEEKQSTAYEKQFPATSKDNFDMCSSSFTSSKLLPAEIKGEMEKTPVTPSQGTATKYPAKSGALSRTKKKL
Summary of the method: as §1

[10] = molecular target: T10, scanMAX Kinase assay panel (Homo sapiens, UniProt Q9H1R3); settings: MYLK2; 1 uM; read-out: Percent Control (%)
T10 construct: purchased DiscoverX
Summary of the method: as §1

[11] = molecular target: T11, scanMAX Kinase assay panel (Homo sapiens, UniProt Q9UQ88); settings: CDC2L2; 1 uM; read-out: Percent Control (%)
T11 construct: purchased DiscoverX
T11 sequence (Q9UQ88 1-783): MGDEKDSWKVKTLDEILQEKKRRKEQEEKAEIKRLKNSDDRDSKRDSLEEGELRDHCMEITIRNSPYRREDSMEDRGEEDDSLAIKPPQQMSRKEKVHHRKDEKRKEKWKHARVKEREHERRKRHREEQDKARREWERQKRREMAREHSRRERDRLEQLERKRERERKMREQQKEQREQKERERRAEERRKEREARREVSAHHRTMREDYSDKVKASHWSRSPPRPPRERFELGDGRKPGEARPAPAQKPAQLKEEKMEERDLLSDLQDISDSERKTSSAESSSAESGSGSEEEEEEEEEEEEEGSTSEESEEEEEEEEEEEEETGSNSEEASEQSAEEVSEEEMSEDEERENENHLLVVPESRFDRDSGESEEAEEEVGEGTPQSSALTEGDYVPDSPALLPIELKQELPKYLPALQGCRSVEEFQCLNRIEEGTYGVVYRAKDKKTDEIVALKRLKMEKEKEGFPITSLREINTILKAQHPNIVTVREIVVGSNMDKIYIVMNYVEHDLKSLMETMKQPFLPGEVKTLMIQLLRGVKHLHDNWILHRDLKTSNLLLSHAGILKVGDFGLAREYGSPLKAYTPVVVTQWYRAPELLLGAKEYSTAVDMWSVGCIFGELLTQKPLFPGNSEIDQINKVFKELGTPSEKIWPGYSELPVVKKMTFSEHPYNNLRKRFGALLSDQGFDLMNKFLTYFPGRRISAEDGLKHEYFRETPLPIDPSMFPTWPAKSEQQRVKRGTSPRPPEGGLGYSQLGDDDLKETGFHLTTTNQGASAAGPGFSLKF
Summary of the method: as §1

T1 sequence (O00506 whole entry): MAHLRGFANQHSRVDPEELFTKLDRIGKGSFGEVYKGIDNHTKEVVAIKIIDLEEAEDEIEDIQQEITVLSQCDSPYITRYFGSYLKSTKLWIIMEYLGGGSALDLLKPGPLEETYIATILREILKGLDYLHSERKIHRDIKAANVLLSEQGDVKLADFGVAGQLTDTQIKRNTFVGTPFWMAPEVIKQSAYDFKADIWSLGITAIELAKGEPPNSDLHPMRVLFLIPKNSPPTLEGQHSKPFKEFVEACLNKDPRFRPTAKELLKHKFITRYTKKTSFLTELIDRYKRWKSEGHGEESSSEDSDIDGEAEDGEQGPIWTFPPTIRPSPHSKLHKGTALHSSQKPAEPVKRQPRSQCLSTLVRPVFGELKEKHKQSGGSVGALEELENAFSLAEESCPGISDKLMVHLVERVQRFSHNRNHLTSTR

| Compound | remaining binding at 1 µM [1] [%] | remaining binding at 1 µM [2] [%] | remaining binding at 1 µM [3] [%] | remaining binding at 1 µM [4] [%] | remaining binding at 1 µM [5] [%] | remaining binding at 1 µM [6] [%] | remaining binding at 1 µM [7] [%] | remaining binding at 1 µM [8] [%] | remaining binding at 1 µM [9] [%] | remaining binding at 1 µM [10] [%] | remaining binding at 1 µM [11] [%] |
| --- | --- | --- | --- | --- | --- | --- | --- | --- | --- | --- | --- |
| Cc1ccc(NC(=O)C2(C(=O)Nc3ccc(F)cc3)CC2)cc1C#Cc1cnc2c(Nc3cnn(C(C)C)c3)cccn12 [Example 78] | 100 | 29 | 95 | 94 | 100 | 86 | 96 | 100 | 100 | 100 | 100 |
| Cc1cn(-c2cc(NC(=O)c3ccc(C)c(C#Cc4cnc5c(Nc6cnn(C)c6)cccn45)c3)cc(C(F)(F)F)c2)cn1 [Example 12, 4-methyl-N-(3-(4-methyl-1H-imidazol-1-yl)-5-(trifluoromethyl)phenyl)-3-((8-((1-methyl-1H-pyrazol-4-yl)amino)imidazo[1,2-a]pyridin-3-yl)ethynyl)benzamide] | 86 | 4 | 10 | 99 | 100 | 89 | 10 | 27 | 40 | 40 | 72 |
| Cc1ccc(C(=O)Nc2ccc(CN3CCN(C)CC3)c(C(F)(F)F)c2)cc1C#Cc1cnc2c(Nc3cnn(C)c3)cccn12 [Example 1, 4-methyl-3-((8-((1-methyl-1H-pyrazol-4-yl)amino)imidazo[1,2-a]pyridin-3-yl)ethynyl)-N-(4-((4-methylpiperazin-1-yl)methyl)-3-(trifluoromethyl)phenyl)benzamide] | 90 | 1 | 1 | 90 | 76 | 62 | 39 | 5 | 5 | 6 | 28 |

— patent publication US10870647B2, “Imidazopyridine derivative, method for preparing same, and pharmaceutical composition containing same as active ingredient for preventing or treating cancer” (DAEGU-GYEONGBUK MEDICAL INNOVATION FOUNDATION, priority 2016, dated 2020)
